ChEMBL document CHEMBL5214890 (Eur J Med Chem, 2021)
Active and inactive are the calls of the source. The rule behind the calls is not given here.

What was measured:
[1] = Toxicity in male db/db mouse assessed as change in Cre at 100 nmol/kg, sc administered twice daily for 7 days; assay type: organism-based; settings: in vivo, 168 h, time 7 day
[2] = Cmax in male Sprague-Dawley rat at 25 nmol/kg, sc administered as single dose and measured after 24 hrs by LC-MS/MS analysis; assay type: ADME, organism-based; parameters: time 24 hrs, dose 25 nmol/kg, route sc; settings: in vivo
[3] = Toxicity in male DIO mouse assessed as change in liver AST level at 100 nmol/kg, sc administered twice daily for 7 days; assay type: organism-based; settings: in vivo, 168 h, time 7 day
[4] = Toxicity in male db/db mouse assessed as reduction in body weight at 100 nmol/kg, sc administered twice daily for 7 days; assay type: organism-based; settings: in vivo, 168 h, time 7 day
[5] = tested on: Mus musculus; assay: Antidiabetic activity in male DIO mouse assessed as decrease in fasted blood glucose at 100 nmol/kg, sc administered twice daily for 7 days; assay type: functional, organism-based; settings: time 7.0 day
[6] = tested on: Rattus norvegicus; assay: Antidiabetic activity in overnight fasted male Sprague-Dawley rat assessed as reduction in food intake at 100 nmol/kg, ip; assay type: functional; parameters: scale not given: the % may be the effect or the level left
[7] = Toxicity in male db/db mouse assessed as change in liver ALT level at 30 nmol/kg, sc administered twice daily for 35 days; assay type: organism-based; settings: in vivo, 840 h, time 35 day
[8] = tested on: Mus musculus; assay: Antidiabetic activity in male DIO mouse assessed as reduction in acute food intake at 10 nmol/kg, sc measured at 24 hrs post administration; assay type: functional, organism-based
[9] = tested on: Mus musculus; assay: Antidiabetic activity in male db/db mouse assessed as increase in islet area at 30 nmol/kg, sc administered twice daily for 35 days; assay type: functional, organism-based; settings: time 35.0 day
[10] = Half-life in male Sprague-Dawley rat at 25 nmol/kg, sc administered as single dose and measured after 24 hrs by LC-MS/MS analysis; assay type: ADME, organism-based; settings: in vivo
[11] = Toxicity in male db/db mouse assessed as change in serum lipase level at 30 nmol/kg, sc administered twice daily for 35 days; assay type: organism-based; settings: in vivo, 840 h, time 35 day
[12] = tested on: Mus musculus; assay: Antidiabetic activity in male db/db mouse assessed as decrease in cumulative food intake at 100 nmol/kg, sc administered twice daily for 7 days; assay type: functional, organism-based; settings: time 7.0 day
[13] = tested on: Rattus norvegicus; assay: Antidiabetic activity in overnight fasted male Sprague-Dawley rat assessed as reduction in food intake at 10 nmol/kg, ip; assay type: functional; parameters: scale not given: the % may be the effect or the level left
[14] = tested on: Mus musculus; assay: Antidiabetic activity in db/db mouse assessed as reduction in plasma insulin level at 10 nmol/kg, ip pretreated with compound and followed by glucose challenge and measured by oral glucose tolerance test; assay type: functional, organism-based
[15] = Toxicity in male DIO mouse assessed as change in Cre at 100 nmol/kg, sc administered twice daily for 7 days; assay type: organism-based; settings: in vivo, 168 h, time 7 day
[16] = tested on: Mus musculus; assay: Antidiabetic activity in non-fasted male db/db mouse assessed as reduction in glucose level at 10 to 100 nmol/kg, sc; assay type: functional, organism-based; settings: dose 10-100 nmol/kg, DDE = dose-dependent effect
[17] = Toxicity in overnight fasted male Sprague-Dawley rat assessed as induction of Pica behaviour by measuring kaolin intake at 10 to 300 nmol/kg, ip; settings: in vivo, dose 10-300 nmol/kg
[18] = Half-life in male Sprague-Dawley rat at 25 nmol/kg, iv administered as single dose and measured after 24 hrs by LC-MS/MS analysis; assay type: ADME, organism-based; settings: in vivo
[19] = tested on: Mus musculus; assay: Antidiabetic activity in male db/db mouse assessed as significant reduction in body weight gain at 30 nmol/kg, sc administered twice daily for 35 days; assay type: functional, organism-based; settings: time 35.0 day
[20] = tested on: Mus musculus; assay: Antidiabetic activity in male […] assessed as improvement in glucose tolerance at 30 nmol/kg, sc administered twice daily for 3 weeks; assay type: functional, organism-based
[21] = Toxicity in male DIO mouse assessed as change in serum lipase at 100 nmol/kg, sc administered twice daily for 7 days; assay type: organism-based; settings: in vivo, 168 h, time 7 day
[22] = Toxicity in male DIO mouse assessed as change in BUN at 100 nmol/kg, sc administered twice daily for 7 days; assay type: organism-based; settings: in vivo, 168 h, time 7 day
[23] = molecular target: T1, Glucagon-like peptide 1 receptor (Homo sapiens, UniProt P43220); assay: Agonist activity at human GLP-1R expressed in HEK293 cells incubated for 30 mins and assessed as increase in cAMP accumulation measured by HTRF assay relative to control; assay type: functional, cell-based; parameters: concentration or dose not given beside the values; settings: filed as agonist
T1 sequence (P43220 whole entry): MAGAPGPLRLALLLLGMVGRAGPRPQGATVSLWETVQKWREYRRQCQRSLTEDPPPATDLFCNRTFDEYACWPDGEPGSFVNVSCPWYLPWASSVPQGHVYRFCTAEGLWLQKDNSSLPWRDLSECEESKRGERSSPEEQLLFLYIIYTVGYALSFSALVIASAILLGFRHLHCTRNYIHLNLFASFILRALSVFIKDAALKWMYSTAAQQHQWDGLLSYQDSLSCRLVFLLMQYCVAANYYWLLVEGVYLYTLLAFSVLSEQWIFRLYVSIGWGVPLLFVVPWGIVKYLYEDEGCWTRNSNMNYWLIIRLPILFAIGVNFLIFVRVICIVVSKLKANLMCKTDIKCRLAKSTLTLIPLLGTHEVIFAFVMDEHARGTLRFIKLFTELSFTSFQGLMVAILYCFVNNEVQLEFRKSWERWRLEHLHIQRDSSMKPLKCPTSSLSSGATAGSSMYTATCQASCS

[24] = tested on: Mus musculus; assay: Antidiabetic activity in male db/db mouse assessed as increase in islet number at 30 nmol/kg, sc administered twice daily for 35 days; assay type: functional, organism-based; settings: time 35.0 day
[25] = Toxicity in male DIO mouse assessed as change in liver ALT level at 100 nmol/kg, sc administered twice daily for 7 days; assay type: organism-based; settings: in vivo, 168 h, time 7 day
[26] = Toxicity in male db/db mouse assessed as change in liver ALT level at 100 nmol/kg, sc administered twice daily for 7 days; assay type: organism-based; settings: in vivo, 168 h, time 7 day
[27] = tested on: Mus musculus; assay: Antidiabetic activity in male db/db mouse assessed as decrease in HbA1c level at 30 nmol/kg, sc administered twice daily for 35 days; assay type: functional, organism-based; settings: time 35.0 day
[28] = AUC (infinity) in male Sprague-Dawley rat at 25 nmol/kg, iv administered as single dose and measured after 24 hrs by LC-MS/MS analysis; assay type: ADME, organism-based; parameters: time 24 hrs, dose 25 nmol/kg, route iv; settings: in vivo
[29] = tested on: Mus musculus; assay: Antidiabetic activity in DIO mouse assessed as reduction in plasma insulin level at 10 nmol/kg, ip pretreated with compound and followed by glucose challenge and measured by oral glucose tolerance test; assay type: functional, organism-based
[30] = tested on: Mus musculus; assay: Antidiabetic activity in male […] assessed as increase in serum HDL/LDL ratio at 30 nmol/kg, sc administered twice daily for 3 weeks; assay type: functional, organism-based
[31] = tested on: Mus musculus; assay: Antidiabetic activity in male […] assessed as decrease in serum total cholesterol level at 30 nmol/kg, sc administered twice daily for 3 weeks; assay type: functional, organism-based
[32] = Toxicity in male db/db mouse assessed as change in Cre level at 30 nmol/kg, sc administered twice daily for 35 days; assay type: organism-based; settings: in vivo, 840 h, time 35 day
[33] = Toxicity in male DIO mouse assessed as change in serum amylase at 100 nmol/kg, sc administered twice daily for 7 days; assay type: organism-based; settings: in vivo, 168 h, time 7 day
[34] = Toxicity in male DIO mouse assessed as reduction in body weight at 100 nmol/kg, sc administered twice daily for 7 days; assay type: organism-based; parameters: scale not given: the % may be the effect or the level left; settings: in vivo, 168 h, time 7 day
[35] = tested on: Mus musculus; assay: Antidiabetic activity in DIO mouse assessed as reduction in blood glucose at 10 nmol/kg, ip pretreated with compound and followed by glucose challenge and measured by oral glucose tolerance test; assay type: functional, organism-based
[36] = Toxicity in male db/db mouse assessed as change in BUN at 100 nmol/kg, sc administered twice daily for 7 days; assay type: organism-based; settings: in vivo, 168 h, time 7 day
[37] = Toxicity in male db/db mouse assessed as change in serum lipase at 100 nmol/kg, sc administered twice daily for 7 days; assay type: organism-based; settings: in vivo, 168 h, time 7 day
[38] = tested on: Mus musculus; assay: Antidiabetic activity in male […] assessed as increase in plasma FGF21 level at 30 nmol/kg, sc administered twice daily for 3 weeks; assay type: functional, organism-based
[39] = tested on: Mus musculus; assay: Antidiabetic activity in male […] assessed as reduction in fat mas at 30 nmol/kg, sc administered twice daily for 3 weeks; assay type: functional, organism-based
[40] = tested on: Mus musculus; assay: Antidiabetic activity in male […] assessed as reduction in food intake at 30 nmol/kg, sc administered twice daily for 3 weeks; assay type: functional, organism-based
[41] = molecular target: T1, Glucagon-like peptide 1 receptor; assay: Agonist activity at human GLP-1R expressed in HEK293 cells incubated for 30 mins and assessed as increase in cAMP accumulation measured by HTRF assay; assay type: functional, cell-based
[42] = tested on: Mus musculus; assay: Antidiabetic activity in male db/db mouse assessed as decrease in fasted blood glucose at 100 nmol/kg, sc administered twice daily for 7 days; assay type: functional, organism-based; settings: time 7.0 day

In the case of `CCCCCCCCCCCCCCCC(=O)N[C@@H](CCC(=O)NCCCC[C@H](NC(=O)[C@H](Cc1ccc(O)cc1)NC(=O)[C@H](CCCCN)NC(=O)[C@H](CO)NC(=O)[C@@H](NC(=O)[C@H](CC(=O)O)NC(=O)[C@H](CC(N)=O)NC(=O)[C@@H](NC(=O)[C@H](Cc1ccc(O)cc1)NC(=O)[C@@H](NC(=O)CNC(=O)[C@H](CCC(N)=O)NC(=O)[C@@H](CO)NC(=O)[C@@H](N)Cc1c[nH]cn1)[C@@H](C)O)[C@@H](C)O)C(C)C)C(=O)N[C@@H](CC(=O)O)C(=O)N[C@@H](CO)C(=O)N[C@@H](CCCNC(=N)N)C(=O)N[C@@H](CCCNC(=N)N)C(=O)N[C@@H](C)C(=O)N[C@@H](CCC(N)=O)C(=O)N[C@@H](CC(=O)O)C(=O)N[C@@H](Cc1ccccc1)C(=O)N[C@H](C(=O)N[C@@H](CCC(=O)O)C(=O)N[C@@H](Cc1c[nH]c2ccccc12)C(=O)N[C@@H](CC(C)C)C(=O)N[C@@H](CCCCN)C(=O)N[C@@H](CC(N)=O)C(=O)NCC(=O)NCC(=O)N1CCC[C@H]1C(=O)N[C@@H](CO)C(=O)N[C@@H](CO)C(=O)NCC(=O)N[C@@H](C)C(=O)N1CCC[C@H]1C(=O)N1CCC[C@H]1C(=O)N1CCC[C@H]1C(=O)N[C@@H](CO)C(N)=O)[C@@H](C)CC)C(=O)O`, the Activity [1] is reported as “Non-Toxic”, the Cmax [2] is reported as 519 ng/mL and the Activity [3] is reported as “Non-Toxic”. For the same molecule, the Activity [4] was “Non-Toxic”, the Activity [5] was “Active” and the Activity [6] was 29%. The Activity [7] was “Non-Toxic”, the Activity [8] was “Active” and the Activity [9] was “Active”. For the same molecule, the half-life [10] was 4 h, the Activity [11] was “Non-Toxic” and the Activity [12] was “Active”. The Activity [13] was 25%, the Activity [14] was “Active” and the Activity [15] was “Non-Toxic”. The Activity [16] was “Dde”, the Activity [17] was “Non-Toxic” and the half-life [18] was 2.6 h. For the same molecule, the Activity [19] was “Active”, the Activity [20] was “Active” and the Activity [21] was “Non-Toxic”. For the same molecule, the Activity [22] was “Non-Toxic”, the Activity [23] was 132% and the Activity [24] was “Active”. The Activity [25] was “Non-Toxic”, the Activity [26] was “Non-Toxic” and the Activity [27] was “Active”. The AUC(0-inf) [28] was 4200 ng·h/mL, the Activity [29] was “Active” and the Activity [30] was “Active”. For the same molecule, the Activity [31] was “Active”, the Activity [32] was “Non-Toxic” and the Activity [33] was “Non-Toxic”. For the same molecule, the Activity [34] was 16.3%, the Activity [35] was “Active” and the Activity [36] was “Non-Toxic”. For the same molecule, the Activity [37] was “Non-Toxic”, the Activity [38] was “Active” and the Activity [39] was “Active”. The Activity [40] was “Active”, the EC50 [41] was 0.031 nM and the Activity [42] was “Active”.
